For data set [1] the following is noted: in vivo; cited from earlier work.
Data set [2] deals with elderly patients with a diagnosis of vascular depression currently being treated with an SSRI and/or SNRI. In words: Case studies of pentoxifylline and propentofylline add-on treatment of vascular depression (HDRS). The format is in vivo, human. The note with it: add-on to existing SSRI and/or SNRI. Here is the method: These case studies investigate the effects of pentoxifylline and propentofylline in one or more elderly patients (>60 years of age) with a diagnosis of vascular depression and who are currently being treated with an SSRI and/or SNRI.
Patients are evaluated at baseline and at regular intervals for a period of months. They are evaluated according to the Hamilton Depressive Rating Scale (HDRS; Hamilton, J. Neurol. Neurosurg. Psychiatry 23:56-62 (1960)).
In one group, pentoxifylline is administered orally in a dose of 400 mg three times a day to augment their SSRI and/or SNRI treatment regimen. In another group, propentofylline is administered orally in a dose of 200 mg three times a day to augment their SSRI and/or SNRI treatment regimen.

For data set [3], the system named is patients with multi-infarct dementia. The note with it: cited from earlier work.
In data set [4] the test system is elderly patients with a diagnosis of vascular depression. Description: Case studies of pentoxifylline and propentofylline treatment of vascular depression (HDRS). In kind it is in vivo, human. The note with it: oral monotherapy. Here is the method: Patients are evaluated at baseline and at regular intervals for a period of months. They are evaluated according to the Hamilton Depressive Rating Scale (HDRS; Hamilton, J. Neurol. Neurosurg. Psychiatry 23:56-62 (1960)). Patients are excluded if their HDRS is ≦15.
In one group, pentoxifylline is administered orally in a dose of 400 mg three times a day. In another group, propentofylline is administered orally in a dose of 200 mg three times a day.

We go through three molecules from patent US20090258860A1, “XANTHINE DERIVATIVES FOR THE TREATMENT OF VASCULAR DEPRESSION” (Duke University, priority 2006, published 2009).

Consider `CC(O)CCCCn1c(=O)c2c(ncn2C)n(C)c1=O` (stereo not drawn) [1(5-hydroxyhexyl)-3,7-dimethylxanthine], for which the cerebral blood flow entry in data set [1] is recorded as “increasing cerebral blood flow”.
For `CC(=O)CCCCn1c(=O)c2c(ncn2C)n(C)c1=O` [pentoxifylline, 1-(5-oxohexyl)-3,7-dimethylxanthine], the tolerability result in data set [2] and in data set [4] was “well tolerated” in each case. In addition, the “intellectual and cognitive function” value in data set [3] was “improve”.
As for `CCCn1cnc2c1c(=O)n(CCCCC(C)=O)c(=O)n2C` [propentofylline, 1-(5-oxohexyl)-3-methyl-7-n-propylxanthine], the tolerability result in data set [2] and in data set [4] was “well tolerated” each time.
